Measurements: PubChem BioAssay AID1421 (Emory University Molecular Libraries Screening Center, 2008)

target: Prostaglandin E2 receptor EP2 subtype (Homo sapiens) (UniProt P43116); test: compounds shifting PGE2 potency at EP2 – cell-based, human EP2, PGE2 EC50 shift, dose response (AID 1421); details: EP2-expressing cells, PGE2 EC50 shift by compound; measured here: PGE2 EC50 at 6.7 uM compound
Sequence (P43116 whole entry, looked up): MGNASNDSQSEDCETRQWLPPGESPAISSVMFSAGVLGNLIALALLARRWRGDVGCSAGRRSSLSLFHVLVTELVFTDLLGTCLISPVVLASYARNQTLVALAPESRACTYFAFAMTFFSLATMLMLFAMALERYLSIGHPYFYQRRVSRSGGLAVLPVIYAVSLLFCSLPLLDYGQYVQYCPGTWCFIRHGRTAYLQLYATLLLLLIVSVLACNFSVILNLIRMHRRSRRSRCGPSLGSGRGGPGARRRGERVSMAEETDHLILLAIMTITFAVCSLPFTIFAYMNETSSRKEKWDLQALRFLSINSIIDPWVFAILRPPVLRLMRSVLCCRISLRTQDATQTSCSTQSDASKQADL

Compound	PGE2 EC50 with compound [nM]
CCOC(=O)c1c(-c2ccc(C)cc2)csc1NC(=O)CCN1CCOCC1	1.21
O=C(O)CSc1ccc2ccccc2n1	2.79
O=C(Cc1ccc(Cl)cc1)Nc1ccccc1Sc1ccccc1	1.07
COc1ccccc1CNC(=O)C1(c2ccc(Cl)cc2)CC1	0.82
COc1ccc2cc3c(N)nn(C(=O)C4CCC(C(C)(C)C)CC4)c3nc2c1 (configuration not stated)	1.08
Cc1ccc(C)n1-n1cnc2scc(-c3cccs3)c2c1=O	0.97
O=C1CC(O)(c2ccccc2)C(c2ccccc2)=C1c1ccccc1 (configuration not stated)	0.87
Nc1nc(Cc2ccccc2)nc(Cc2ccccc2)c1-c1ccccc1	0.79
COc1ccc(C(=O)Nc2cc(C)nn2-c2nc3ccccc3[nH]2)c(OC)c1	0.91
C=CCSc1nc2ccccc2n1S(=O)(=O)c1ccc(Cl)cc1	0.85
CCOc1ccccc1Cn1c(=O)oc2ccc(C)cc21	1.09
N#CCSc1nc2c(c(C3CC=CCC3)c1C#N)CCC2 (configuration not stated)	1.45
CCc1ccccc1NC(=S)N(Cc1ccco1)C(C)c1cccs1 (configuration not stated)	0.9
CCCCn1c(-c2csc3c2CCCC3)n[nH]c1=S	1.25
c1ccc(-c2noc(-c3ccccc3-c3ccccc3)n2)cc1	0.84
CN1C(=O)/C(=C/c2ccccc2OCc2cccc(F)c2)N(C)C1=S	0.81
COc1cc(C2Oc3cc(C4Oc5cc(O)cc(O)c5C(=O)C4O)ccc3OC2CO)ccc1O (configuration not stated)	1.15
C[C@]12CCC3C(CC[C@H]4C[C@@H](Cl)CC[C@]34C)C1CCC2=O (some centres not stated)	0.99
Cc1ccc(-c2nnc(N3CCC(C)CC3)c3ccccc23)cc1	1.39

Compound	PGE2 EC50 with compound [nM]
CCCCN1C(=O)/C(=C2\SC(N3CCCCC3)=NC2=O)c2ccccc21	1.26
COC(=O)c1[nH]c2ccccc2c1NS(=O)(=O)c1ccc(F)c(C)c1	0.88
Cc1ccc(N/C(C(Cl)=C(Cl)Cl)=C(/Cl)[N+](=O)[O-])c(C)c1	1.32
Cc1cc2cc(CN(Cc3nnnn3C3CCCCC3)CC3CCCO3)c(=O)[nH]c2cc1C (configuration not stated)	0.97
O=C(Nc1ccccc1N1CCN(c2ccccc2)CC1)C12CC3CC(CC(C3)C1)C2	2.52
C/C(=N\N(Cc1ccccc1)c1ccccc1)c1cccnc1	1.38
CCCCC(=O)Nc1sc2c(c1C(=O)OCC)CCC(C=O)=C2Cl	0.91
CC(=O)c1sc2nc(-c3ccc(C)cc3)c3c(c2c1N)CCCC3	2.47
Cc1cc(C)c(S(=O)(=O)c2ccccc2)c(OC(=O)c2c(Cl)cc(Cl)cc2Cl)n1	1.27
Cc1cc(C)c2nc(N3CCCN(C(=O)c4ccco4)CC3)c(C#N)cc2c1	0.64
COc1ccc(-c2nnc3ccc(SCC(=O)Nc4nc5ccccc5s4)nn23)cc1OC	0.67
CCn1c(=NC(=O)c2ccc(S(=O)(=O)N3CCOCC3)cc2)sc2cccc(OC)c21	0.91
CCOc1ccccc1C(=O)Nc1ccccc1-c1ccccc1	1.34
CC(C)CCn1c(-c2nonc2N)nc2ccccc21	1.49
COc1ccc2ccc(=O)oc2c1CC=C(C)C	1.13
CCc1c(-c2n[nH]c(=S)n2Cc2ccccc2)csc1C	1.22
Cc1cccc(NCc2nc3ccccc3n2Cc2ccccc2)c1	1.13
CSc1nnc(CSCc2ccc(Cl)cc2Cl)n1-c1ccccc1	2.63
C/C(=N\NC(=O)NC1CCCCC1)C1CCCCC1	1.79

Compound	PGE2 EC50 with compound [nM]
Cc1ccccc1NC(=S)N(Cc1ccco1)C(C)c1cccs1 (configuration not stated)	1.68
Cc1ccccc1C(=O)Nc1ccccc1N1CCCCC1	1.41
Cc1ccccc1S(=O)(=O)c1c(C)cc(C)n(CC(C)C)c1=O	2.47
CCOC(=O)c1ccc(CN(Cc2ccc(C)cc2)S(=O)(=O)c2cccc([N+](=O)[O-])c2)cc1	1.62
CCOc1nc2cccc(C(=O)OC(C)OC(=O)OC3CCCCC3)c2n1Cc1ccc(-c2ccccc2-c2nn[nH]n2)cc1 (configuration not stated)	1.42
CC(=O)Nc1nnc(CCN2CCCCC2)s1	1.46
c1ccc(-c2cc(-c3ccncc3)nc3ccc4ccccc4c23)cc1	0.69
O=C(c1ccco1)N(CCC(c1ccccc1)c1ccco1)Cc1ccc(F)cc1 (configuration not stated)	1.11
COc1ccc(N2CCN(c3nc4c(c(=O)[nH]c(=O)n4C)n3Cc3cccc(C)c3)CC2)cc1	0.7
O=C(c1ccccc1)N1N=C(c2ccccc2)CC1c1ccccc1O (configuration not stated)	1.14
C[C@]12CCC(=O)C=C1CCC1C2CC[C@@]2(C)C1CC[C@@H]2O (some centres not stated)	1.55
COc1ccc(-c2cc(C(F)(F)F)nc(N3CCCCC3)n2)cc1OC	0.57
CCOC(=O)C1=C(C)N(C)C(C)=C(C(=O)OCC)C1c1ccsc1	0.79
COc1cc(-c2nc(-c3cccc(C(F)(F)F)c3)no2)cc(OC)c1OC	0.89
CCOc1ccc(-c2nn3c(-c4ccccc4)nnc3s2)cc1	1.04
CSc1nc(-c2ccc(Cl)cc2)nn1S(=O)(=O)c1ccccc1	1.03
C=CCSc1nc(N(CC)CC)c2sccc2n1	0.98
NC(=O)CSc1nc(-c2ccccc2)c(-c2ccccc2)o1	0.94
O=C1COc2ccccc2N1Cc1ccccc1Cl	1.38
